{"source": "patent US7759504B2", "about": "“Triarylamine derivative” (Fujifilm Corporation, priority 2007, dated 2010)", "assay_type_in_all_cases": "physicochemical", "key": {"[1]": {"assay": "Light resistance of PMMA film sample (colorant residual rate)", "details": "170 hours xenon lamp (170 thousands lux, UV cut filter); 5% by weight in PMMA film; absorbance after/before treatment", "protocol": "(§1) Into 25 ml of dichloromethane were dissolved 2.5 g of PMMA, and 0.125 g of the triarylamine derivative, and the solution was coated on a 100 μm-thick PET film. This was dried at 80° C. for 2 hours under reduced pressure to prepare a sample for assessment having a thickness of from 2 to 3 μm. The sample for assessment contained the triarylamine derivative at 5% by weight based on PMMA.\nThe sample for assessment obtained above was irradiation-treated for 170 hours with a xenon lamp (170 thousands lux, using an UV cut filter). The absorbance of the assessment sample at the maximum absorption wavelength of the triarylamine derivative (colorant) was measured, and a colorant residual rate (%) was obtained as a ratio of the absorbance after irradiation treatment relative to the absorbance before irradiation treatment."}, "[2]": {"assay": "Wet heat resistance of PMMA film sample (colorant residual rate)", "details": "60° C. and relative humidity of 90% for 200 hours; 5% by weight in PMMA film; absorbance after/before treatment", "protocol": "as §1\nThe sample for assessment obtained above was subjected to wet heat treatment at 60° C. and a relative humidity of 90% for 200 hours. The absorbance of the assessment sample at the maximum absorption wavelength of the triarylamine derivative (colorant) was measured, and a colorant residual rate (%) was obtained as a ratio of the absorbance after wet heat treatment relative to the absorbance before wet heat treatment."}, "[3]": {"assay": "Solubility in 2-butanone (MEK)"}, "[4]": {"assay": "Heat resistance of PMMA film sample (colorant residual rate)", "details": "80° C. for 400 hours; 5% by weight in PMMA film; absorbance at maximum absorption wavelength after/before treatment", "protocol": "as §1\nThe sample for assessment obtained above was heat-treated at 80° C. for 400 hours. The absorbance of the assessment sample at the maximum absorption wavelength of the triarylamine derivative (colorant) was measured, and a colorant residual rate (%) was obtained as a ratio of the absorbance after heat treatment relative to the absorbance before heat treatment."}}, "data": [{"molecule": "CCCCN(CCCC)c1ccc([N+](=C2C=CC(=[N+](CCCC)CCCC)C=C2)c2ccc(N(CCCC)CCCC)cc2)cc1", "note": "[Comparative Example, reference compound]", "values": [{"measurement": "Light Resistance (colorant residual rate)", "setting": "[1]", "value": 98, "unit": "%"}, {"measurement": "Wet Heat Resistance (colorant residual rate)", "setting": "[2]", "value": 45, "unit": "%"}, {"measurement": "Solubility (w/v)", "setting": "[3]", "value": 16, "unit": "% w/v %"}, {"measurement": "Heat Resistance (colorant residual rate)", "setting": "[4]", "value": 80, "unit": "%"}]}, {"molecule": "CCCCN(CCCC)c1ccc([N+](=C2C=CC(=[N+](CCCC)CCCC)C=C2C)c2ccc(N(CCCC)CCCC)cc2)cc1", "note": "[Compound 28]", "values": [{"measurement": "Light Resistance (colorant residual rate)", "setting": "[1]", "value": 98, "unit": "%"}, {"measurement": "Wet Heat Resistance (colorant residual rate)", "setting": "[2]", "value": 48, "unit": "%"}, {"measurement": "Solubility (w/v)", "setting": "[3]", "value": 23, "unit": "% w/v %"}, {"measurement": "Heat Resistance (colorant residual rate)", "setting": "[4]", "value": 82, "unit": "%"}]}, {"molecule": "CCCCN(CCCC)c1ccc([N+](=C2C=CC(=[N+](CCCC)CCCC)C=C2C)c2ccc(N(CCCC)CCCC)cc2)cc1", "note": "[Compound 79]", "values": [{"measurement": "Light Resistance (colorant residual rate)", "setting": "[1]", "value": 99, "unit": "%"}, {"measurement": "Wet Heat Resistance (colorant residual rate)", "setting": "[2]", "value": 89, "unit": "%"}, {"measurement": "Solubility (w/v)", "setting": "[3]", "value": 32, "unit": "% w/v %"}, {"measurement": "Heat Resistance (colorant residual rate)", "setting": "[4]", "value": 87, "unit": "%"}]}]}
